# Results reported in US11464854B2, “Methods and compositions relating to adjuvants” (Children's Medical Center Corporation, priority 2017, dated 2022).
# Assays:
# [1] = test system: human neonatal and adult blood; test: Human whole blood assay, cytokine induction (CRX adjuvants); format: cell-based
# Description: Human blood was anti-coagulated with 20 units/ml pyrogen-free sodium heparin (American Pharmaceutical Partners, Inc.; Schaumberg, Ill.). All blood products were kept at room temperature and processed within 4 hours from collection. Human whole blood assays were completed as previously described. Briefly, neonatal cord blood or adult whole blood (WB) was mixed 1:1 with sterile pre-warmed (37° C.) RPMI 1640 medium (Invitrogen; Carlsbad, Calif.) and 180-225 μl of the 1:1 suspension was added to each well of a 96 well U-bottom plate (Becton Dickinson; Franklin Lakes, N.J., USA) containing 20-25 μl freshly prepared specific TLRAs at 10× the final concentration. Suspensions containing 200-250 μl/well were gently mixed by pipetting and incubated for 6 hours at 37° C. in a humidified incubator at 5%, CO2. After culture, plates were centrifuged at 500×g and ˜100-150 μl of supernatant was carefully removed by pipetting without disturbing the cell pellet. Supernatants derived from human leukocyte stimulations were assayed by ELISA for TNF and IFNγ (BD Biosciences; San Jose, Calif., USA).
# Additionally, for both newborn and adult readouts, cytokine and chemokine expression profiles in cell culture supernatants and peripheral blood plasma were measured using customized Milliplex™ human cytokine/chemokine magnetic bead panels (Millipore; Billerica, Mass., USA). Assays were analyzed on the Luminex® 100/200™ System employing xPOTENT® software (Luminex; Austin, Tex.) and Millipore Milliplex Analyst™ (version 3.5.5.0). The minimum threshold for each analyte was set at the minimum detectable concentration for a given assay, defined as three standard deviations above the mean background. CL075 (TLR8/7) was purchased from InvivoGen (San Diego, Calif.) and used at the concentrations noted in the figure legends.
# [2] = test system: cytokine and IFN-inducible gene expression in draining lymph nodes and spleen; format: in vivo, mice; settings: mice
# [3] = Safety and reactogenicity monitoring in neonatal/infant rhesus macaques; format: in vivo, rhesus macaques (Macaca mulatta)
# Description: In vivo neonatal and infant rhesus macaque vaccination studies. Rhesus macaques (Indian origin Macaca mulatta) were obtained from the TNPRC specific pathogen-free breeding colony. Upon identification, pregnant dams were transferred to an indoor social group to allow for monitoring and delivery of infants. At birth, neonatal rhesus macaques (<24 hours of age) were enrolled into the longitudinal immunization study. Exclusion criteria were, a) maternal fever (≥40° C.) during infant exam on DOL0, b) birth weight<400 g, c) clinical signs of neonatal infection (e.g. infant temperature […]; nasal, ocular discharge; respiratory distress, cardiovascular instability), d) congenital defects (e.g. abnormal digits, omphalocele) and/or e) abnormal cling. Animals were group-housed in dam/infant pairs with a maximum of 4 pairs (8 animals) together. […] Standard physiological safety parameters, extrapolated from human infant clinical trials of PCV (28), included temperature and weight (normalized to Tulane National Primate Research Center reference standard for rhesus macaques), which were recorded at multiple time-points at observation/sample-acquisition, as well as local signs of reactogenicity such as leg circumference pre/post-immunization and photographic documentation of erythema (Table 4). […]
# [4] = rats
# [5] = 1 μM and 10 μM, newborn over adult whole blood
Compound,"CXCL8, CXCL10, CCL2 and GM-CSF production (multiplex) [1, 5]","production of IL-1β, L-6, IL-10, and IL-12p40 (multiplex) [1, 5]",IFNγ production in newborn blood relative to similarly treated adult blood ([1]; 10 μM),TNF production in newborn cord blood versus adult ([1]; 6 hours),"IFNγ production ([1]; newborn blood, 10 μM, 6 hours)","induction of IFNγ ([1]; newborn cord blood, 6 hours)",IFN-related and TLR7 gene expression in the spleens ([2]; SC administration),cytokine mRNA expression ([2]; SC administration),"time of peak cytokine mRNA expression ([2]; single SC dose, lymph node tissue and splenocytes)","animals with transient and mild maculopapular rash ([3]; 3M-052- or (PCV13+3M-052)-treated infant animals, co-housed, second enrollment season)","systemic cytokine induction (plasma) ([3]; with or without PCV13, first 63 days of life or 48 hours post (DOL30) a single dose)","3M-052 in serum ([4]; 0.1 mg/kg, up to 24 hours post-dose)","serum 3M-052 peak ([4]; 1 mg/kg, 4 hour peak)"
CCCCc1nc2c(N)nc3ccccc3c2n1CCO [CRX-649],greater CRX-649 induced production in newborn blood,concentration-dependent production,twice,more than adult-like age-specific potency and effectiveness,~1200 pg/mL,"greatest potency, effectiveness and IFNγ polarization",–,–,–,–,–,–,–
"CCCCCCCCCCCCCCCCCC(=O)NCCCCOn1c(CCCC)nc2c(N)nc3ccccc3c21 [3M-052, N-[4-[(4-amino-2-butyl-1H-imidazo[4,5-c]quinolin-1-yl)oxy]butyl]octadecanamide]",–,–,–,–,–,–,robust,little if any,6 h,3 of the total of 16,did not induce systemic cytokine induction,not detectable,~50 pmol/mL
